Data on 8 molecules can be found in patent US20120322728A1, “PPAR-SPARING THIAZOLIDINEDIONES AND COMBINATIONS FOR THE TREATMENT OF DIABETES MELLITUS AND OTHER METABOLIC DISEASES” (Metabolic Solutions Development Company, LLC, priority 2009, published 2012).

The subject of one data set is BAT precursor cells. The data set is described as follows: BAT differentiation: UCP1 protein by Western blot. The format is cell-based, mice. The following applies: BAT precursor cells treated with 0.1 to 10 μM for 7 days. As for the experimental part:
Precursors of BAT are isolated from the interscapular adipose pad of either normal or diabetic mice and cultured in vitro as described below based on the modifications recited in Petrovic N, Shabalina I G, Timmons J A, Cannon B, Nedergaard J. Am. J. Physiol. Endocrinol. Metab. 295:E287-E296, 2008, hereby incorporated by reference.
The brown fat pads are pooled and minced, digested for 45 minutes in isolation buffer containing 0.15% (wt/vol) collagenase. The cell suspension is filtered through a 100 μm nylon filter and centrifuged at 200×g for 5 minutes. […]
Cells are then treated with the compounds, compound salts, or co-crystals thereof being assayed for BAT differentiation. […] The development of the BAT phenotype is assessed by direct measure of the uncoupling protein 1 (UCP1), which is emblematic of brown adipose cells.
Following treatment of the cells, the growth medium is aspirated, rinsed with PBS, and lysed with KHM buffer containing 1% Igepal CA-630, and a protease inhibitor cocktail. The lysate is centrifuged at 8,000×g for 5 minutes (4° C.), the supernatant containing the cell lysate is collected and total protein analyzed using the BCA method. […] Densitometry is conducted on the scanned films using ImageJ software and analyzed using GraphPad Prism software. […]
(In general: A western blot detects proteins with antibodies after separation by electrophoresis.)

Another data set relates to PGC-1α. The data set is described as follows: Expression of PGC-1α mRNA in precursor BAT cells with norepinephrine (quantitative PCR). The data set is classed as cell-based, mice. The settings on record: for PGC-1α mRNA in the presence of norepinephrine: 3 μM compound for seven days, then 1 μM norepinephrine for 2 hours. As for the experimental part: Another example of the ability of augmented signaling between cyclic nucleotides and compounds of Formula I is shown by the effect on expression of PGC-1a, a known regulator of mitochondrial biogenesis. Increased numbers of mitochondria are predictive of utility for the reduction of body weight.
Precursor BAT cells were isolated as described above and treated with or without 3 μM compounds: 1.] Compound A: 5-(4-(2-(5-ethylpyridin-2-yl)-2-oxoethoxy)benzyl)-1,3-thiazolidine-2,4-dione; 2.] Compound C: 5-(4-(2R)-2-(5-ethylpyridin-2-yl)-2-hydroxyethoxyy)benzyl)-1,3-thiazolidine-2,4-dione; or Compound B: 5-(4-(2-(3-methoxyphenyl)-2-oxoethoxy)benzyl)-1,3-thiazolidine-2,4-dione for seven days followed by treatment with 1 μM norepinephrine for 2 hours. Total RNA was isolated from the cells and the RNA message (mRNA) for PGC-1α was measured by quantitative polymerase chain reactions.

Data set [1] in a line: AUC of compound related materials after oral dosing of Compound B forms. The data set is classed as in vivo. The following applies: 250 mg free acid equivalents, formulated tablets, N=4 cynomolgus monkeys. The method, then:
Referring to FIG. 8, the area under the curve (AUC) of compound related materials was compared following dosing of 250 mg of Compound B as powder in capsules of free acid (PIC), formulated tablets of micronized free acid, or formulated tablets of the Na or K salt of Compound B given at the same free acid equivalents. (N=4 cynomolgus monkeys). The formulated, compressed tablet also contained in each case approximately 40.5% lactose, 16.8% microcrystalline cellulose, 1.9% Croscarmellose sodium, 0.5% colloidal silicon dioxide, and 0.9% magnesium stearate.

The nature of data set [2]: Bioavailability of sodium salt of Compound A, crossover, oral capsule versus iv injection. The data set is classed as in vivo. The following applies: 90 mg free base equivalents, 4 male cynomolgus monkeys. As for the experimental part: The monkeys fasted overnight and were dosed by oral gavage washed down with 10 ml tap water. Blood samples were taken at 0.25, 0.5, 1, 2, 3, 4, 6, 9, 12, 24, and 48 hours after a single dosage was administered and assayed for drug related materials with a LCMS assay using an internal standard. 90 mg of drug was put in 00 gelatin capsules containing 90 mg of free base equivalents. This was compared to an iv injection of 2 ml/kg and 45 mg of free base solution in 50% hydroxypropyl b-cyclodextran. The absolute availability versus an iv injection was determined for both parent compound and major metabolite.

The next data set relates to diabetic KKAy mouse. The data set is described as follows: Blood glucose lowering in diabetic KKAy mouse. The format is in vivo. The following applies: diabetic KKAy mice (N=6), gavage once daily, plasma glucose after 4 daily doses. The method, then: In these experiments, free base or sodium salt was given to diabetic KKAy mice (N=6) and blood glucose was measured after 4 days of daily treatment at the doses indicated. KKAy mice, 8-12 weeks of age, were given the doses of the compounds according to the dosages on the X axis of FIG. 9. The compounds were given by gavage once daily at 10 mg/kg. On the fifth day (after 4 daily doses at the levels show) a blood sample was taken to measure plasma glucose.

For the molecule `CCc1ccc(C(=O)COc2ccc(CC3SC(=O)NC3=O)cc2)nc1` (stereo not shown) [5-(4-(2-(5-ethylpyridin-2-yl)-2-oxoethoxy)benzyl)-1,3-thiazolidine-2,4-dione], the “amount of UCP1 (Western blot)” value with BAT precursor cells is on record as “dose-dependent increase”. For `CCc1ccc(C(=O)COc2ccc(CC3SC(=O)NC3=O)cc2)nc1` (stereo not shown) [Compound A, 5-(4-(2-(5-ethylpyridin-2-yl)-2-oxoethoxy)benzyl)-1,3-thiazolidine-2,4-dione], the “PGC-1α mRNA in the presence of norepinephrine” value in the data set on PGC-1α is given as “increase”. As to `COc1cccc(C(=O)COc2ccc(CC3SC(=O)NC3=O)cc2)c1` (stereo not shown) [Compound B, 5-(4-(2-(3-methoxyphenyl)-2-oxoethoxy)benzyl)-1,3-thiazolidine-2,4-dione], the “PGC-1α mRNA in the presence of norepinephrine” value with PGC-1α is on record as “increase”. Still for that read-out and setting: the entry for `CCc1ccc([C@@H](O)COc2ccc(CC3SC(=O)NC3=O)cc2)nc1` (stereo partly shown) [Compound C] is “increase”.

For `NC[C@H](O)c1ccc(O)c(O)c1` [norepinephrine, reference compound], the “PGC-1α mRNA, norepinephrine alone” value with PGC-1α (absence of compound (control), 1 μM norepinephrine for 2 hours) was “did not produce an increase”.

Regarding `COc1cccc(C(=O)COc2ccc(CC3SC(=O)[N-]C3=O)cc2)c1.[K+]` (stereo not shown) [potassium salt of Compound B, Potassium 5-{4-[2-(3-methoxyphenyl)-2-oxoethoxy]benzyl}-2,4-dioxo-1,3-thiazolidin-3-ide], the “bioavailability (AUC of compound related materials) versus free acid” value in data set [1] is listed as “significantly higher bioavailability”.

For `CCc1ccc(C(=O)COc2ccc(CC3SC(=O)[N-]C3=O)cc2)nc1.[Na+]` (stereo not shown) [sodium salt of Compound A, Sodium 5-{4-[2-(5-ethylpyridin-2-yl)-2-oxoethoxy]benzyl}-2,4-dioxo-1,3-thiazolidin-3-ide], in data set [2], the “absolute bioavailability of major metabolite versus free base” value is listed as “significantly higher bioavailability” and the “absolute bioavailability of parent compound versus free base” value was “significantly higher bioavailability”. The lowering blood glucose entry in the data set on diabetic KKAy mouse is “excellent dose response”. For `COc1cccc(C(=O)COc2ccc(CC3SC(=O)[N-]C3=O)cc2)c1.[Na+]` (stereo not shown) [sodium salt of Compound B, Sodium 5-{4-[2-(3-methoxyphenyl)-2-oxoethoxy]benzyl}-2,4-dioxo-1,3-thiazolidin-3-ide], the “bioavailability (AUC of compound related materials) versus free acid” value in data set [1] is recorded as “significantly higher bioavailability”.
